Reference: US8802634B2, “CD40-L Inhibitory Peptides” (Phylogica Limited, priority 2008, dated 2014)
Where two headings read alike, the source gives them in different places. Blank lines part the entries; values can stand above or below the compound they belong to. Where a SMILES comes first, the peptide text is derived from it. Bridges are numbered along the chain shown (N, C = ends). Roman numbers before positions name the chains, in order. [ ]: non-standard residue; d: D form. AEEA = NCCOCCOCC(=O)O

Experiments:
[1] = molecular target: CD40L-induced CD86 expression on primary B-cells (Homo sapiens, UniProt P29965); assay: Inhibition of CD40L-induced CD86 expression on primary B-cells (FACS); assay type: cell-based; conditions: for inhibition of CD40L-induced CD86 expression (qualitative): figure legends
Description: In one example, the ability of a peptide, analog or derivative of the invention to inhibit or reduce or delay expression of CD86 on primary B-cells was determined in the presence and absence of the peptides, analogs and derivatives of the invention. In particular, CD86 expression was determined by FACS.
In these assays, CD40L induced CD86 expression in a concentration-dependent manner in the absence of a peptidyl inhibitor of the present invention with an EC50 value of about 9 nM (FIG. 6d, 6e). As a control in these assays, LPS-induced expression of CD86 mediated by the Toll-like receptors TLR 2/4, and TNFα-induced cytoxicity, were also assayed to exclude effects mediated by ligands other than CD40L.
In a similar series of bioassays, dimeric forms of the CD40L peptide inhibitors were also tested for their ability to inhibit or reduce CD40L-induced expression of CD86 on primary B-cells.

CD40L/CD40-Fc = molecular target: T1, CD40L/CD40-Fc (Homo sapiens, UniProt P29965); assay: Chemiluminescent proximity assay (Alphascreen) of CD40L-CD40 interaction; assay type: binding
T1 sequence (P29965 113-261 limits assumed): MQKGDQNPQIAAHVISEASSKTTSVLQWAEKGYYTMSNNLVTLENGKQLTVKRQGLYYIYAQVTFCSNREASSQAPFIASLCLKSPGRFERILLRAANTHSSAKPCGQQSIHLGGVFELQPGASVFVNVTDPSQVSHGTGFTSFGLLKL
Description: In one example, the Alphascreen assay (PerkinElmer) was employed according to the manufacturer's instructions.
Homodimers and heterodimers were also assayed by chemiluminescent proximity assay for their ability to inhibit CD40L-CD40 interaction.

[2] = PEGylated monomeric peptide, read-out: EC50 PEGylated peptide

CD40L-induced CD86 expression on primary B-cells, sequence (P29965 whole entry): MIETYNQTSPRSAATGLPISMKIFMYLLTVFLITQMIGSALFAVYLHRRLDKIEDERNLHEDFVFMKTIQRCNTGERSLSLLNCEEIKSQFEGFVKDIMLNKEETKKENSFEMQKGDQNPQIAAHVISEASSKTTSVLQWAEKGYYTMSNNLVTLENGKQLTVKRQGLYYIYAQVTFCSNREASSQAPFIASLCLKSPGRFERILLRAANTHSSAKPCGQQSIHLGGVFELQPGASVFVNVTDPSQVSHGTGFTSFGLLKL
CD40L-induced CD86 expression on primary B-cells, sequence (P25942 21-277 partner): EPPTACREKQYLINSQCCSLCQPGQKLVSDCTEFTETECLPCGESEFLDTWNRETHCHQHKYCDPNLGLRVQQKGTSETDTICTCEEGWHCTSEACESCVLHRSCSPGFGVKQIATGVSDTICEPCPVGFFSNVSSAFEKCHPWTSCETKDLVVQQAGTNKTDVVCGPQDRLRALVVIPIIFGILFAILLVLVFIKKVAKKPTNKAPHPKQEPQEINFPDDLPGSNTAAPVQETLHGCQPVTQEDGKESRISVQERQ

inhibition of CD40L-induced CD86 expression (qualitative) [1]: concentration-dependent inhibition
IC50 ([1]; monomeric peptide, concentration-dependent): < 500 nM
SMILES: CC[C@H](C)[C@H](NC(=O)[C@H](CO)NC(=O)[C@H](Cc1c[nH]c2ccccc12)NC(=O)[C@H](CCC(N)=O)NC(=O)[C@@H](NC(=O)[C@@H]1CCCN1C(=O)[C@H](Cc1ccccc1)NC(=O)[C@H](Cc1ccccc1)NC(=O)[C@H](Cc1c[nH]c2ccccc12)NC(=O)CNC(=O)[C@H](Cc1ccc(O)cc1)NC(=O)[C@H](CCCCN)NC(=O)[C@H](CC(C)C)NC(=O)[C@@H](NC(=O)[C@H](Cc1c[nH]cn1)NC(=O)[C@H](CO)NC(=O)[C@H](CCCNC(=N)N)NC(=O)[C@H](Cc1ccc(O)cc1)NC(=O)[C@@H]1CCCN1C(=O)[C@@H](NC(=O)[C@H](Cc1ccccc1)NC(=O)[C@@H]1CCCN1C(=O)[C@@H](N)CC(C)C)C(C)C)C(C)C)C(C)C)C(=O)N[C@@H](Cc1ccccc1)C(=O)N[C@@H](C)C(=O)N[C@H](C(=O)N[C@@H](CC(C)C)C(=O)N1CCC[C@H]1C(=O)N[C@@H](Cc1ccccc1)C(=O)N[C@@H](CCC(N)=O)C(=O)N[C@@H](Cc1ccc(O)cc1)C(=O)N[C@@H](CC(C)C)C(=O)N[C@@H](Cc1c[nH]cn1)C(=O)N[C@@H](CCCNC(=N)N)C(=O)N[C@@H](CS)C(=O)N[C@@H](CCCNC(=N)N)C(=O)O)C(C)C [CD40L M1_18] (H-LPFVPYRSHVLKYGWFFPVQWSIFAVLPFQYLHRCR-OH; N-terminus and C-terminus assumed)

inhibition of CD40L-induced CD86 expression (qualitative) [1]: enhanced inhibition
SMILES: CC[C@@H](C)[C@@H](NC(=O)[C@@H](Cc1ccccc1)NC(=O)[C@@H](C)NC(=O)[C@H](NC(=O)[C@@H](CC(C)C)NC(=O)[C@H]1CCCN1C(=O)[C@@H](Cc1ccccc1)NC(=O)[C@@H](CCC(N)=O)NC(=O)[C@@H](Cc1ccc(O)cc1)NC(=O)[C@@H](CC(C)C)NC(=O)[C@@H](Cc1c[nH]cn1)NC(=O)[C@@H](CCCNC(=N)N)NC(=O)[C@@H](CS)NC(=O)[C@H](N)CCCNC(=N)N)C(C)C)C(=O)N[C@H](CO)C(=O)N[C@H](Cc1c[nH]c2ccccc12)C(=O)N[C@H](CCC(N)=O)C(=O)N[C@@H](C(=O)N1CCC[C@@H]1C(=O)N[C@H](Cc1ccccc1)C(=O)N[C@H](Cc1ccccc1)C(=O)N[C@H](Cc1c[nH]c2ccccc12)C(=O)NCC(=O)N[C@H](Cc1ccc(O)cc1)C(=O)N[C@H](CCCCN)C(=O)N[C@H](CC(C)C)C(=O)N[C@@H](C(=O)N[C@H](Cc1c[nH]cn1)C(=O)N[C@H](CO)C(=O)N[C@H](CCCNC(=N)N)C(=O)N[C@H](Cc1ccc(O)cc1)C(=O)N1CCC[C@@H]1C(=O)N[C@@H](C(=O)N[C@H](Cc1ccccc1)C(=O)N1CCC[C@@H]1C(=O)N[C@H](CC(C)C)C(=O)O)C(C)C)C(C)C)C(C)C [CD40L M1_18rd] (H-[dR][dC][dR][dH][dL][dY][dQ][dF][dP][dL][dV][dA][dF][dI][dS][dW][dQ][dV][dP][dF][dF][dW]G[dY][dK][dL][dV][dH][dS][dR][dY][dP][dV][dF][dP][dL]-OH; N-terminus and C-terminus assumed)

EC50 [1, 2]: > 2000 nM
SMILES: CC[C@H](C)[C@H](NC(=O)[C@H](CCC(N)=O)NC(=O)[C@H](Cc1ccccc1)NC(=O)[C@H](Cc1ccccc1)NC(=O)[C@H](CCC(=O)O)NC(=O)[C@H](CCCNC(=N)N)NC(=O)CNC(=O)[C@H](C)NC(=O)[C@H](C)NC(=O)[C@@H](N)CC(=O)O)C(=O)N[C@@H](C)C(=O)NCC(=O)N[C@@H](CC(C)C)C(=O)N[C@@H](Cc1ccccc1)C(=O)N[C@@H](CO)C(=O)N[C@@H](Cc1ccccc1)C(=O)N[C@@H](CCCNC(=N)N)C(=O)N[C@@H](Cc1c[nH]cn1)C(=O)N[C@@H](Cc1c[nH]cn1)C(=O)N[C@@H](Cc1c[nH]c2ccccc12)C(=O)N[C@@H](Cc1c[nH]c2ccccc12)C(=O)N[C@@H](CCC(N)=O)C(=O)N[C@@H](C)C(=O)O [CD40L M1_30s] (H-DAAGREFFQIAGLFSFRHHWWQA-OH; N-terminus and C-terminus assumed)

EC50 [1, 2]: 30 nM
SMILES: CC[C@H](C)[C@H](NC(=O)CNC(=O)CNC(=O)[C@H](CCCNC(=N)N)NC(=O)[C@H](CCC(N)=O)NC(=O)[C@@H](NC(=O)CNC(=O)[C@H](CO)NC(=O)[C@@H]1CCCN1C(=O)[C@@H](NC(=O)[C@H](Cc1ccccc1)NC(=O)[C@H](CC(C)C)NC(=O)[C@H](CO)NC(=O)[C@H](Cc1ccc(O)cc1)NC(=O)[C@H](Cc1ccccc1)NC(=O)[C@H](CCCNC(=N)N)NC(=O)[C@H](CC(N)=O)NC(=O)[C@H](CCCNC(=N)N)NC(=O)[C@@H](NC(=O)[C@H](Cc1c[nH]c2ccccc12)NC(=O)[C@H](CCCNC(=N)N)NC(=O)[C@@H]1CCCN1)C(C)C)C(C)C)C(C)C)C(=O)N[C@@H](Cc1c[nH]cn1)C(=O)N[C@@H](CC(C)C)C(=O)N[C@@H](Cc1c[nH]c2ccccc12)C(=O)N[C@@H](Cc1ccccc1)C(=O)N[C@@H](CO)C(=O)N[C@@H](CC(N)=O)C(=O)N[C@@H](Cc1c[nH]c2ccccc12)C(=O)N[C@H](C(=O)N[C@@H](CCCNC(=N)N)C(=O)O)C(C)C [CD40L M1_50s] (H-PRWVRNRFYSLFVPSGVQRGGIHLWFSNWVR-OH; N-terminus and C-terminus assumed)

EC50 (CD40L/CD40-Fc; PEGylated Cys-Ser derivative, read-out: EC50(PEGylated) CD40L/CD40-Fc/BAF617): 120 nM
SMILES: CC[C@H](C)[C@H](NC(=O)[C@H](CC(C)C)NC(=O)[C@H](CCC(N)=O)NC(=O)[C@H](Cc1ccccc1)NC(=O)[C@H](Cc1ccc(O)cc1)NC(=O)[C@H](Cc1ccc(O)cc1)NC(=O)[C@H](CCCCN)NC(=O)[C@H](Cc1ccccc1)NC(=O)[C@H](CCCNC(=N)N)NC(=O)[C@H](CO)NC(=O)[C@H](Cc1ccc(O)cc1)NC(=O)[C@H](CCCNC(=N)N)NC(=O)[C@H](Cc1c[nH]c2ccccc12)NC(=O)[C@H](Cc1c[nH]cn1)NC(=O)[C@H](Cc1ccc(O)cc1)NC(=O)[C@H](CCC(N)=O)NC(=O)[C@@H](NC(=O)[C@@H](N)CO)[C@@H](C)CC)C(=O)N[C@@H](Cc1c[nH]c2ccccc12)C(=O)N[C@H](C(=O)N[C@@H](Cc1ccc(O)cc1)C(=O)N[C@@H](Cc1ccc(O)cc1)C(=O)N[C@@H](CO)C(=O)N[C@@H](Cc1c[nH]cn1)C(=O)N[C@H](C(=O)O)C(C)C)C(C)C [CD40L M1_82s] (H-SIQYHWRYSRFKYYFQLIWVYYSHV-OH; N-terminus and C-terminus assumed)

EC50 (CD40L/CD40-Fc; unmodified (non-PEGylated) monomeric base peptide; read-out: EC50nmodified) CD40L/CD40-Fc/BAF617): 120 nM
SMILES: CC[C@H](C)[C@H](NC(=O)[C@@H](NC(=O)[C@H](CCCCN)NC(=O)[C@@H](NC(=O)[C@H](Cc1ccc(O)cc1)NC(=O)[C@H](CC(C)C)NC(=O)[C@@H](N)CC(C)C)C(C)C)C(C)C)C(=O)N[C@@H](CS)C(=O)N[C@@H](Cc1ccccc1)C(=O)N[C@@H](Cc1ccccc1)C(=O)N[C@@H](CS)C(=O)N[C@@H](CCSC)C(=O)N[C@@H](CC(C)C)C(=O)N[C@H](C(=O)N[C@@H](CCC(N)=O)C(=O)N[C@@H](Cc1ccc(O)cc1)C(=O)N[C@@H](CC(N)=O)C(=O)N[C@@H](CC(N)=O)C(=O)N[C@@H](Cc1ccccc1)C(=O)N[C@@H](CCC(N)=O)C(=O)N[C@H](C(=O)N[C@@H](Cc1ccc(O)cc1)C(=O)N[C@@H](CCCCN)C(=O)O)[C@@H](C)O)C(C)C [CD40L M2_159] (H-LLYVKVICFFCMLVQYNNFQTYK-OH; N-terminus and C-terminus assumed)

inhibition of CD40L-CD40 interaction relative to monomeric peptide controls (CD40L/CD40-Fc; qualitative): enhanced inhibition
inhibition of CD40L-induced CD86 expression (qualitative) [1]: enhanced inhibition
SMILES: CC[C@H](C)[C@H](NC(=O)[C@H](CO)NC(=O)[C@H](Cc1ccccc1)NC(=O)[C@@H](NC(=O)[C@H](CC(N)=O)NC(=O)[C@H](CCCCN)NC(=O)[C@@H](NC(=O)[C@H](CO)NC(=O)[C@H](Cc1ccccc1)NC(=O)[C@@H]1CCCN1C(=O)[C@H](Cc1c[nH]cn1)NC(=O)COCCOCCNC(=O)[C@@H](N)CSSC[C@H](N)C(=O)NCCOCCOCC(=O)N[C@@H](Cc1c[nH]cn1)C(=O)N1CCC[C@H]1C(=O)N[C@@H](Cc1ccccc1)C(=O)N[C@@H](CO)C(=O)N[C@H](C(=O)N[C@@H](CCCCN)C(=O)N[C@@H](CC(N)=O)C(=O)N[C@H](C(=O)N[C@@H](Cc1ccccc1)C(=O)N[C@@H](CO)C(=O)N[C@H](C(=O)N[C@@H](Cc1c[nH]c2ccccc12)C(=O)N[C@@H](CC(N)=O)C(=O)N[C@@H](Cc1ccccc1)C(=O)N[C@@H](Cc1ccccc1)C(=O)N[C@@H](CO)C(=O)N[C@H](C(=O)N[C@@H](Cc1ccc(O)cc1)C(=O)O)C(C)C)[C@@H](C)CC)C(C)C)[C@@H](C)CC)[C@@H](C)CC)C(C)C)C(=O)N[C@@H](Cc1c[nH]c2ccccc12)C(=O)N[C@@H](CC(N)=O)C(=O)N[C@@H](Cc1ccccc1)C(=O)N[C@@H](Cc1ccccc1)C(=O)N[C@@H](CO)C(=O)N[C@H](C(=O)N[C@@H](Cc1ccc(O)cc1)C(=O)O)C(C)C [Cys_M1_6S homodimer] (I: H-C[AEEA]HPFSIKNVFSIWNFFSVY-OH / II: H-C[AEEA]HPFSIKNVFSIWNFFSVY-OH; disulfide I:1-II:1; C-terminus assumed)

EC50 (CD40L/CD40-Fc; monomeric and dimeric peptides, Table 5, read-out: EC50): 177 nM
EC50 ([1]; monomeric and dimeric peptides, Table 7, read-out: EC50): 176 nM
SMILES: CC[C@H](C)[C@H](NC(=O)[C@H](CO)NC(=O)[C@H](Cc1ccccc1)NC(=O)[C@@H]1CCCN1C(=O)[C@@H]1CCCN1C(=O)[C@H](CO)NC(=O)[C@H](Cc1ccccc1)NC(=O)[C@H](Cc1ccccc1)NC(=O)[C@H](Cc1ccccc1)NC(=O)[C@H](CC(C)C)NC(=O)[C@H](CC(C)C)NC(=O)[C@@H](N)CC(C)C)C(=O)N[C@@H](Cc1ccccc1)C(=O)N[C@@H](CO)C(=O)N[C@@H](Cc1ccccc1)C(=O)N[C@@H](CO)C(=O)N[C@@H](CC(C)C)C(=O)N[C@H](C(=O)N[C@H](C(=O)N[C@@H](CC(C)C)C(=O)N[C@@H](CO)C(=O)O)[C@@H](C)O)[C@@H](C)O [Peptide M7_189S] (H-LLLFFFSPPFSIFSFSLTTLS-OH)
